ChEMBL document CHEMBL1833788, “Selective water-soluble gelatinase inhibitor prodrugs” (J Med Chem, 2011)

What was measured:
Mus musculus [1] = test: Prodrug conversion in C57B1/6 mouse assessed as N-(4-(4-(thiiran-2-ylmethylsulfonyl)phenoxy)phenyl)acetamide level in plasma at […], iv administered as single bolus dose after 62 to 66 mins by reversed-phase LC/MS analysis; conditions: in vivo
Mus musculus [2] = test: Prodrug conversion in C57B1/6 mouse assessed as N-(4-(4-(thiiran-2-ylmethylsulfonyl)phenoxy)phenyl)acetamide level in plasma at […], iv administered as single bolus dose after 42 mins by reversed-phase HPLC/UV analysis; format: ADME, organism-based; conditions: in vivo, 0.7 h
Mus musculus [3] = test: Prodrug conversion in C57B1/6 mouse assessed as 4-[4-((Thiiran-2-yl)methylsulphonyl)phenoxy]benzamine level in plasma at […], iv administered as single bolus dose after 22 mins by reversed-phase HPLC/UV analysis; format: ADME, organism-based; conditions: in vivo
Mus musculus [4] = test: Prodrug conversion in C57B1/6 mouse plasma assessed as parent compound level at […], iv administered as single bolus dose after 62 to 66 mins by reversed-phase LC/MS analysis; format: ADME, organism-based; conditions: in vivo, read-out: Drug metabolism
Mus musculus [5] = test: AUC (0 to last) in C57B1/6 mouse plasma assessed as N-(4-(4-(thiiran-2-ylmethylsulfonyl)phenoxy)phenyl)acetamide level at […], iv administered as single bolus dose; format: ADME, organism-based; conditions: in vivo
Mus musculus [6] = test: Clearance in C57B1/6 mouse plasma assessed as parent compound level at […], iv administered as single bolus dose; format: ADME, organism-based; conditions: in vivo
Mus musculus [7] = test: Prodrug conversion in C57B1/6 mouse assessed as 4-[4-((Thiiran-2-yl)methylsulphonyl)phenoxy]benzamine level in plasma at […], iv administered as single bolus dose after 7 to 8 mins by reversed-phase HPLC/UV analysis; format: ADME, organism-based; conditions: in vivo
Mus musculus [8] = test: Prodrug conversion in C57B1/6 mouse assessed as 4-[4-((Thiiran-2-yl)methylsulphonyl)phenoxy]benzamine level in plasma at […], iv administered as single bolus dose after 42 mins by reversed-phase HPLC/UV analysis; format: ADME, organism-based; conditions: in vivo, 0.7 h, read-out: Drug metabolism
Mus musculus [9] = test: Prodrug conversion in C57B1/6 mouse assessed as 4-[4-((Thiiran-2-yl)methylsulphonyl)phenoxy]benzamine level in plasma at […], iv administered as single bolus dose after 62 to 66 mins by reversed-phase HPLC/UV analysis; format: ADME, organism-based; conditions: in vivo, read-out: Drug metabolism
Mus musculus [10] = test: Prodrug conversion in C57B1/6 mouse assessed as N-(4-(4-(thiiran-2-ylmethylsulfonyl)phenoxy)phenyl)acetamide level in plasma at […], iv administered as single bolus dose after 11 to 12 mins by reversed-phase LC/MS analysis; conditions: in vivo
Mus musculus [11] = test: AUC (0 to infinity) in C57B1/6 mouse plasma assessed as parent compound level at […], iv administered as single bolus dose; format: ADME, organism-based; conditions: in vivo
Mus musculus [12] = test: Terminal half life in C57B1/6 mouse plasma assessed as N-(4-(4-(thiiran-2-ylmethylsulfonyl)phenoxy)phenyl)acetamide level at […], iv administered as single bolus dose; format: ADME, organism-based; conditions: in vivo, BLD = below limit of detection
Mus musculus [13] = test: AUC (0 to infinity) in C57B1/6 mouse plasma assessed as 4-[4-((Thiiran-2-yl)methylsulphonyl)phenoxy]benzamine level at […], iv administered as single bolus dose; format: ADME, organism-based; conditions: in vivo
Mus musculus [14] = test: AUC (0 to infinity) in C57B1/6 mouse plasma assessed as N-(4-(4-(thiiran-2-ylmethylsulfonyl)phenoxy)phenyl)acetamide level at […], iv administered as single bolus dose; format: ADME, organism-based; conditions: in vivo, BLD = below limit of detection
Mus musculus [15] = test: Prodrug conversion in C57B1/6 mouse plasma assessed as parent compound level at […], iv administered as single bolus dose after 7 to 8 mins by reversed-phase LC/MS analysis; format: ADME, organism-based; conditions: in vivo
Mus musculus [16] = test: Prodrug conversion in C57B1/6 mouse plasma assessed as parent compound level at […], iv administered as single bolus dose after 2 to 3 mins by reversed-phase LC/MS analysis; format: ADME, organism-based; conditions: in vivo, read-out: Drug metabolism
Mus musculus [17] = test: Terminal half life in C57B1/6 mouse plasma assessed as 4-[4-((Thiiran-2-yl)methylsulphonyl)phenoxy]benzamine level at […], iv administered as single dose; format: ADME, organism-based; conditions: in vivo
Mus musculus [18] = test: Prodrug conversion in C57B1/6 mouse plasma assessed as parent compound level at […], iv administered as single bolus dose after 11 to 12 mins by reversed-phase LC/MS analysis; format: ADME, organism-based; conditions: in vivo, read-out: Drug metabolism
Mus musculus [19] = test: Prodrug conversion in C57B1/6 mouse assessed as 4-[4-((Thiiran-2-yl)methylsulphonyl)phenoxy]benzamine level in plasma at […], iv administered as single bolus dose after 2 to 3 mins by reversed-phase HPLC/UV analysis; format: ADME, organism-based; conditions: in vivo
Mus musculus [20] = test: Prodrug conversion in C57B1/6 mouse plasma assessed as parent compound level at […], iv administered as single bolus dose after 22 mins by reversed-phase LC/MS analysis; format: ADME, organism-based; conditions: in vivo, read-out: Drug metabolism
Mus musculus [21] = test: Volume of distribution in C57B1/6 mouse plasma assessed as parent compound level at […], iv administered as single bolus dose; format: ADME, organism-based; conditions: in vivo
Mus musculus [22] = test: Distribution half life in C57B1/6 mouse plasma assessed as 4-[4-((Thiiran-2-yl)methylsulphonyl)phenoxy]benzamine level at […], iv administered as single dose; format: ADME, organism-based; conditions: in vivo
Mus musculus [23] = test: Distribution half life in C57B1/6 mouse plasma assessed as parent compound level at […], iv administered as single bolus dose; format: ADME, organism-based; conditions: in vivo
Mus musculus [24] = test: Distribution half life in C57B1/6 mouse plasma assessed as N-(4-(4-(thiiran-2-ylmethylsulfonyl)phenoxy)phenyl)acetamide level at […], iv administered as single bolus dose; format: ADME, organism-based; conditions: in vivo
Mus musculus [25] = test: Prodrug conversion in C57B1/6 mouse assessed as 4-[4-((Thiiran-2-yl)methylsulphonyl)phenoxy]benzamine level in plasma at […], iv administered as single bolus dose after 4 to 5 mins by reversed-phase HPLC/UV analysis; format: ADME, organism-based; conditions: in vivo
Mus musculus [26] = test: Prodrug conversion in C57B1/6 mouse plasma assessed as parent compound level at […], iv administered as single bolus dose after 42 mins by reversed-phase LC/MS analysis; format: ADME, organism-based; conditions: in vivo, 0.7 h
Mus musculus [27] = test: Prodrug conversion in C57B1/6 mouse plasma assessed as parent compound level at […], iv administered as single bolus dose after 120 to 123 mins by reversed-phase LC/MS analysis; format: ADME, organism-based; conditions: in vivo, read-out: Drug metabolism
Mus musculus [28] = test: AUC (0 to last) in C57B1/6 mouse plasma assessed as parent compound level at […], iv administered as single bolus dose; format: ADME, organism-based; conditions: in vivo
Mus musculus [29] = test: Prodrug conversion in C57B1/6 mouse assessed as N-(4-(4-(thiiran-2-ylmethylsulfonyl)phenoxy)phenyl)acetamide level in plasma at […], iv administered as single bolus dose after 2 to 3 mins by reversed-phase LC/MS analysis; conditions: in vivo
Mus musculus [30] = test: Prodrug conversion in C57B1/6 mouse assessed as N-(4-(4-(thiiran-2-ylmethylsulfonyl)phenoxy)phenyl)acetamide level in plasma at […], iv administered as single bolus dose after 22 mins by reversed-phase HPLC/UV analysis; format: ADME, organism-based; conditions: in vivo
Mus musculus [31] = test: Prodrug conversion in C57B1/6 mouse assessed as 4-[4-((Thiiran-2-yl)methylsulphonyl)phenoxy]benzamine level in plasma at […], iv administered as single bolus dose after 11 to 12 mins by reversed-phase HPLC/UV analysis; format: ADME, organism-based; conditions: in vivo, read-out: Drug metabolism
Mus musculus [32] = test: AUC (0 to last) in C57B1/6 mouse plasma assessed as 4-[4-((Thiiran-2-yl)methylsulphonyl)phenoxy]benzamine level at […], iv administered as single bolus dose; format: ADME, organism-based; conditions: in vivo

Cl.N=C(N)NCCC[C@H](N)C(=O)Nc1ccc(Oc2ccc(S(=O)(=O)CC3CS3)cc2)cc1 (some centres not stated)
Drug metabolism (Mus musculus [1]): 0.0121 µM | Drug metabolism (Mus musculus [2]): 0.0358 µM | Drug metabolism (Mus musculus [3]): 0.787 µM | concentration (Mus musculus [4]): 38.5 nM | AUClast (Mus musculus [5]): 4.22 µM·min | CL (Mus musculus [6]): 58.2 mL/min/kg | Drug metabolism (Mus musculus [7]): 4.5 µM | concentration (Mus musculus [8]): 207 nM | concentration (Mus musculus [9]): 90.8 nM | Drug metabolism (Mus musculus [10]): 0.149 µM | AUC (Mus musculus [11]): 363 µM·min | beta t1/2 (Mus musculus [12]): BLD | AUC (Mus musculus [13]): 138 µM·min | AUC (Mus musculus [14]): BLD | Drug metabolism (Mus musculus [15]): 1.28 µM | concentration (Mus musculus [16]): 35100 nM | beta t1/2 (Mus musculus [17]): 1.15 h | concentration (Mus musculus [18]): 1580 nM | Drug metabolism (Mus musculus [19]): 12.3 µM | concentration (Mus musculus [20]): 138 nM | Vd (Mus musculus [21]): 0.0978 L/kg | alphat1/2 (Mus musculus [22]): 2.9 min | alphat1/2 (Mus musculus [23]): 0.88 min | alphat1/2 (Mus musculus [24]): 12 min | Drug metabolism (Mus musculus [25]): 10.4 µM | Drug metabolism (Mus musculus [26]): 0.0872 µM | concentration (Mus musculus [27]): 17.1 nM | AUClast (Mus musculus [28]): 360 µM·min | Drug metabolism (Mus musculus [29]): 0.0354 µM | Drug metabolism (Mus musculus [30]): 0.0627 µM | concentration (Mus musculus [31]): 2450 nM | AUClast (Mus musculus [32]): 137 µM·min
